# Assay results published in article PMC9134315, “Systemic Administration of a Brain Permeable Cdk5 Inhibitor Alters Neurobehavior” (Frontiers in Pharmacology, 2022).
# Tests used:
# Cdk2/CyclinE = Cdk2/CyclinE (Homo sapiens, UniProt P24941); assay: In vitro dose-response kinase inhibition assay; format: biochemical
# Protocol: (§1) In vitro phosphorylation reactions were conducted as dose-response kinase inhibition assays with three highly homologous CDKs, namely, Cdk2/CyclinE (1.5 nM), CDK5/p25 (0.35 nM), and Cdk9/CyclinT1 (9 nM). Briefly, the abovementioned kinases were incubated with ATP (30 μM), the corresponding substrate (20 μM), and an increasing concentration of 25–106 (0–5 μM) for 30 min.
# Cdk9/CyclinT1 = Cdk9/CyclinT1 (Homo sapiens, UniProt P50750); assay: In vitro dose-response kinase inhibition assay; format: biochemical; conditions: 30 min, ATP 30 μM
# Chain of Cdk9/CyclinT1 (P50750 whole entry, species assumed): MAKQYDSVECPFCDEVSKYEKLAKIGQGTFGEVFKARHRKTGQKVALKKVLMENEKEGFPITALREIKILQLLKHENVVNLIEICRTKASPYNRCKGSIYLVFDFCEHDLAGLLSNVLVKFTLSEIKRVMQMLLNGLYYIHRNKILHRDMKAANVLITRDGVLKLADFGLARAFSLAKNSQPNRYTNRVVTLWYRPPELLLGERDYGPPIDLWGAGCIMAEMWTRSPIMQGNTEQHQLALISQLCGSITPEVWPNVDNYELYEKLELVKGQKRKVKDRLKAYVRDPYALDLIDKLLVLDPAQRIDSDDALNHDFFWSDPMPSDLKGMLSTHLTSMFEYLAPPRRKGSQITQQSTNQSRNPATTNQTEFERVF
# Chain of Cdk9/CyclinT1 (O60563 whole entry partner, species assumed): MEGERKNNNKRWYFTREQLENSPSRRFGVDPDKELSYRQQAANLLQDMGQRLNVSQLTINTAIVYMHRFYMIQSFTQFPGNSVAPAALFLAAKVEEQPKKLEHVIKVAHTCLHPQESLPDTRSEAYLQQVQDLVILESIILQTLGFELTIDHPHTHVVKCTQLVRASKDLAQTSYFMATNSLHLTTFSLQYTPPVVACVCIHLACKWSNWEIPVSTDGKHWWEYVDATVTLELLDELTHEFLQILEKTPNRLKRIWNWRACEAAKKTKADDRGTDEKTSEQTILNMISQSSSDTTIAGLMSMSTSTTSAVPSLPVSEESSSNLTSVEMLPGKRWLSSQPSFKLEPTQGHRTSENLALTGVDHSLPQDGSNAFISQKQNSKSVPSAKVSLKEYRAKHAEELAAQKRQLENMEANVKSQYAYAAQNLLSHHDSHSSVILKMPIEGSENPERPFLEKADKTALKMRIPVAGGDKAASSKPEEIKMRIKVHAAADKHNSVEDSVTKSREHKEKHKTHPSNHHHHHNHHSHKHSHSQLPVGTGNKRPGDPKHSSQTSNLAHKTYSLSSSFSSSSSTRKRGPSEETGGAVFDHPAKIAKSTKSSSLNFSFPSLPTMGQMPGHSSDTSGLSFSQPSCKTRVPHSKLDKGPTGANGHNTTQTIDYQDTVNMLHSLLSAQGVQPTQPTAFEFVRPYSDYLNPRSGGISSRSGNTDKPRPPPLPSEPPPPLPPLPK
# Protocol: as §1
# CDK5/p25 = CDK5/p25 (Homo sapiens, UniProt Q00535); assay: In vitro dose-response kinase inhibition assay; format: biochemical
# Chain of CDK5/p25 (Q00535 whole entry, species assumed): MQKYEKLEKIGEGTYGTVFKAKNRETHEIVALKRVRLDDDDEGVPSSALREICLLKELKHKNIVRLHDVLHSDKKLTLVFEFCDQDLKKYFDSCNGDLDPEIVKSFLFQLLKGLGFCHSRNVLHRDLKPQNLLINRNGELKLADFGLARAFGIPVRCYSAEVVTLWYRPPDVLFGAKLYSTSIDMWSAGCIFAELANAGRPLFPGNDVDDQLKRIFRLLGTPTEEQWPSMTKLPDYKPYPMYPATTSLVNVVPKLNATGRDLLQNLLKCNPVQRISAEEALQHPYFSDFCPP
# Chain of CDK5/p25 (Q15078 99-307 partner limits assumed, species assumed): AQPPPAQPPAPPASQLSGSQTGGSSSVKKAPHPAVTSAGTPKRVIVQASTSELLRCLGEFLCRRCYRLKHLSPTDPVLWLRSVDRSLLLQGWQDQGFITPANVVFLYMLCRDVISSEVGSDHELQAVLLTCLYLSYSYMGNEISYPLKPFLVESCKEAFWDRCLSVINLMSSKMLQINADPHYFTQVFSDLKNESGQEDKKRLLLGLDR
# Protocol: as §1
# C57BL/6 mice [1] = assay: Open-field test; format: in vivo, mouse; conditions: 50 mg/kg
# Protocol: The OFT was performed as described ([Chakraborti et al., 2021]). With the adaptation duration of the test being 1 h for each mouse, briefly, the mice were placed in a square box (40 cm × 40 cm) and allowed to freely explore. The center square portion of the maze was defined as the “open area.” Video tracking using EthoVision 16 software was used to track animal movement throughout the box and stereotypic and locomotive behaviors such as hopping, sniffing, and rearing. Total distance traveled, entries into the center of the maze, and duration in the center were tracked and analyzed in EthoVision.
# To establish a functional effect of pharmacological Cdk5 inhibition in the brain, we tested mouse performance in two behavioral paradigms previously shown to be altered in Cdk5 knockout mice: the open-field maze and the tail suspension test ([Plattner et al., 2015]). The open-field maze was used to measure locomotion and anxiety-like behavior ([Cacace et al., 2011]; [Seibenhener and Wooten, 2015]). Mice were injected with either vehicle or 50 mg/kg of 25–106 and allowed to freely explore an open-field maze for 1 h with locomotor activity being tracked (Figure 7).
# C57BL/6 mice [2] = assay: Tail suspension test; format: in vivo, mouse; conditions: 50 mg/kg, 6 h after injection
# Protocol: The tail suspension test was conducted as previously described ([Plattner et al., 2015]). The mice were suspended by their tails for a total duration of 6 min and video-recorded. Post-hoc blind experimentalists quantified the duration and latency of immobility for each randomized video. The average quantitative determents of each observer were averaged to generate the final analytic values of motion.
# Next, we tested the effects of 25–106 on mouse performance in the tail-suspension test to measure depressive-like phenotypes in mice ([Cryan et al., 2005]; [Can et al., 2012]). […] Thus, 25–106 modulated several neurobehavioral behaviors that have previously been linked to Cdk5.
structure (smiles),measurement,setting,value
"COc1cc(CC(=O)Nc2cc(C3CCC3)[nH]n2)cc(OC)c1OC [25–106, N-(5-cyclobutyl-1H-pyrazol-3-yl)-2-(3,4,5-trimethoxyphenyl)acetamide]",IC50,"Cdk2/CyclinE; 30 min, ATP 30 μM, read-out: IC50 CDK2/Cyclin E",149 nM
same,Ki,"Cdk2/CyclinE; 30 min, ATP 30 μM, read-out: Ki CDK2/Cyclin E",89 nM
same,selectivity for Cdk2 than Cdk9,Cdk2/CyclinE; in vitro kinase assay,greater than 30 fold
same,IC50,Cdk9/CyclinT1; read-out: IC50 CDK9/Cyclin T1,5710 nM
same,Ki,Cdk9/CyclinT1; read-out: Ki CDK9/Cyclin T1,3430 nM
same,IC50,"CDK5/p25; 30 min, ATP 30 μM, read-out: IC50 CDK5/P35",178 nM
same,Ki,"CDK5/p25; 30 min, ATP 30 μM, read-out: Ki CDK5/P35",107 nM
same,selectivity for Cdk5 than Cdk9,CDK5/p25; in vitro kinase assay,greater than 30 fold
same,duration of time spent in the open portion of the maze vs. vehicle,"C57BL/6 mice [1]; 1 h after injection, 1 h test",longer duration of time
same,entries into the open portion of the maze vs. vehicle,"C57BL/6 mice [1]; 1 h after injection, 1 h test",increased number of entries
same,hopping bouts vs. vehicle,C57BL/6 mice [1]; open-field testing,increased hopping bouts
same,rearing behaviors vs. vehicle,C57BL/6 mice [1]; open-field testing,increased rearing behaviors
same,time sniffing vs. vehicle,C57BL/6 mice [1]; open-field testing,increased time sniffing
same,latency to immobility vs. vehicle,C57BL/6 mice [2],increased latency
same,total immobility time vs. vehicle,C57BL/6 mice [2],reduction in total immobility time
